Results from US11707062B2, “Formulation of stearyl alcohol” (PRO FARM GROUP, INC., priority 2017, dated 2023).

What was measured:
[1] = Percent light transmittance by spectrophotometer; format: physicochemical; details: depending on the concentration of material applied
Experimental: FIG. 8 denotes percent light transmission (% T) of wavelengths between 200 and 750 nm. UV-B radiation occurs at 280-315 nm (dashed green lines), while photosynthetically active radiation occurs between 400-700 nm (solid green lines). The rows of symbols correspond to 12 mL/L concentrations of formulated stearyl alcohol (triangles) and two alternate formulations (squares, diamonds). Water (circles) results in 100% light transmittance. To test the hypothesis that stearyl alcohol reduces transmission of light radiation, particularly within the UV-B spectrum, percent (%) transmittance were measured using a spectrophotometer. stearyl alcohol was diluted to 1/100th of the field application rate (6 mL/L active ingredient) for both visible and non-visible UV light spectra. Visible light spectral analysis was conducted using a 96 well plate while UV transparent cuvettes and 96 well plates were utilized to analyze the percent light transmittance at the UV spectrum. For all spectrophotometer light transmittance screenings, both a water reference and plate blank were used to calibrate the ratio of light energy transmitted through the formulation samples to the energy transmitted through the reference blank. Treatments were replicated three times.

soybean leaves = assay: Leaf temperature and gas exchange of attached soybean leaves in a field; format: in vivo; details: 1% v/v DI water solution on upper leaf surface; SE±0.31; P-value<0.02, paired t-test
Description: FIG. 9 denotes a comparison of the temperature depression caused by stearyl alcohol application to leaves. Points represent temperatures measured at 9 time intervals on four pairs of leaves. FIG. 10 denotes a comparison of photosynthetic capacity of treated leaves, control leaves and leaves prior to stearyl alcohol application. Photosynthetic capacity variation is interpreted as a treatment having higher/lower photosynthesis values than the control for the same stomatal conductance To test the hypothesis that stearyl alcohol reduces internal leaf temperatures while not adversely affecting photosynthesis, stearyl alcohol was applied to eight attached soybean leaves selected from plants growing in a field. The leaves were spaced in blocks so that two leaves could be compared to each other as control/treatment pairs. The leaves were placed in fishing line, wood and metal holders that restrained the leaves in an exposed and horizontal orientation (to prevent leaf orientation changes affecting the leaf energy balance and temperature). Leaf temperature was measured with an IR thermometer three times before and six times after application of a 1% v/v DI water solution of stearyl alcohol to the upper leaf surface, applied using a household spray bottle. Full coverage of the leaf surface was achieved and excess water shaken off. Leaves were dry within half an hour. […]

tomato plants = assay: Controlled lab bioassay of transpiration under moderate heat stress; format: in vivo
Experimental: FIG. 11 denotes mean transpiration rates of tomato plants treated with stearyl alcohol at 72 hours after application. Bars represent standard errors. A controlled lab bioassay was run to evaluate the ability of stearyl alcohol to decrease transpiration of tomato plants under moderate heat stress. stearyl alcohol was applied at a 6 mL/L concentration in water to five tomato plants at the 6-8 leaf stage growing in 8.9 cm square pots, using a research track sprayer. Sombrero, a commercially available calcium carbonate plant sunscreen product, was applied as a positive control and deionized water as a negative control. The application rate was equivalent to 150 liters of diluted product per acre. After sealing pots with plastic bags to prevent water loss through evaporation from the soil surface and measuring total pot and plant weight, the plants were placed in randomized complete blocks in a growth chamber set to 26° C. with 50% relative humidity, x 3000 μW/cm2 illumination for 14 hours per day. Sealed pots and plants were again weighed at 24, 48 and 72 hours after application. Differences in weight were attributed to water loss through transpiration. Plant mass was then plotted against time, and the slope of the linear regression was taken to be the rate of water loss in Average surface area of the leaves (cm2) was calculated using a digital leaf area scanner. Mean transpiration rate was then calculated as: Rate=Water Loss Rate (μg/sec)/Total Leaf Area (cm2).

[2] = tested on: wine (Merlot) and table (Princess) grape varieties; assay: Solar radiation damage in Chilean vineyards; format: in vivo; details: 3, 6 or 9 mL/L in 100 L of water; at harvest
Description: FIG. 13 denotes number of sun-damaged bunches of Merlot grape. Bars represent standard error for total number of damaged bunches. Letters are the same for each category of damage and represent significant differences according to a Tukey test for separation of means with α=0.05.
FIG. 14 denotes number of sun-damaged bunches of Princesa table grape. Bars represent standard error for number of damaged bunches. Letters represent significant differences in number of damaged bunches according to a Tukey test for separation of means with α=0.05.
To evaluate for protection from excess or harmful solar radiation, stearyl alcohol was applied by Duarte and Associates in established Chilean vineyards planted with wine (Merlot) and table (Princess) grape varieties. Plants were treated in 2014 with 3, 6 or 9 mL/L in 100 L of water when berries reached 11 mm in diameter and at two week intervals over the subsequent six weeks. Five contiguous vines were sprayed per treatment; treatments were replicated 3 times and arranged in a random complete block design. At harvest, bunches were counted per plant, yields assessed, sugar content measured and solar radiation damage rated.

almond = assay: Almond orchard field trial, yield

## CCCCCCCCCCCCCCCCCCO [stearyl alcohol]
[1]; 400-700 nm
  reductions of light in the photosynthetically active radiation spectrum: 10-15%
[1]; UV-B 280-315 nm
  reductions of transmitted UV-B radiation: 20-50%
Soybean leaves
  apparent depression in leaf temperatures after application: 1.5 degree C.
Tomato plants; 6 mL/L stearyl alcohol, 26° C., 50% relative humidity, up to 72 hours after application, untreated control 6.68
  mean transpiration rate: 5.33 μg/cm2/sec
Tomato plants; tomato plants, growth chamber 26° C.
  average reductions in leaf temperature: 1.50 (±0.35) ° C.
Tomato plants; vs untreated control
  reductions in transpiration: about 20%
[2]
  damaged bunches, table grape (Princess): fewer damaged bunches
  damaged bunches, wine grape (Merlot): fewer damaged bunches
almond; almond orchard, six assessment dates
  crop safety in pre-harvest field assessments: confirmed the crop safety
almond; stearyl alcohol 6 ml/L three applications, Surround 50 lbs per acre, untreated 2.8 tons/A
  almond yields: 3.2 tons/A
